One compound from patent publication US4108987A, “Cyclic hexapeptides” (Merck & Co., Inc., priority 1977, dated 1978) can be followed below.

Square brackets hold non-standard residues; d marks the D form. Peptide text beside a SMILES is read from it.

This test concerns rumen fluid which contained methane-producing bacteria and other rumen bacteria. The test is described as follows: In vitro rumen fermentation test. Type of test: cell-based. The procedure:
Rumen fluid which contained methane-producing bacteria and other rumen bacteria was produced in a fermentor which was set up and maintained to simulate the conditions of a rumen.
The test was carried out in a screw-cap tube which was sealed with a butyl rubber stopper. […] The air in the tube was replaced with a gas mixture of 97% nitrogen-3% hydrogen made free of oxygen by passage through a catalytic purifier. After incubation for 18 hours in a water bath shaker at 39° C., 0.5 ml. of the gas was removed through the stopper into the sample loop of a Fisher Gas Partitioner. The gas sample was partitioned, and the methane produced was compared to a standard gas mixture containing a known amount of methane. The incubation mixture was acidified with 4 ml. of 10% metaphosphoric acid and centrifuged. One μl. of the supernate was analyzed by gas-liquid chromatography. The volatile fatty acids were compared to a standard volatile fatty acid mixture containing known amounts of acetic, propionic, butyric and valeric acids. Appropriate controls were included.

With `O=C1N[C@H](Cc2ccccc2)C(=O)N2CCC[C@H]2C(=O)N[C@H](Cc2ccccc2)C(=O)N2CCC[C@H]2C(=O)N[C@H](Cc2ccccc2)C(=O)N2CCC[C@@H]12` [cyclo(Pro-D-Phe)3, Cyclo(Pro-D-Phe)3] (cyclo(P[dF]P[dF]P[dF])), the “CH4 (methane) produced” value (250 μg./ml. of tested compound, incubation 18 hours at 39° C., gas partitioner) is recorded as “essentially eliminated”. Besides, under “250 μg./ml. of tested compound, incubation 18 hours at 39° C., gas-liquid chromatography”, the “shift in VFA ratios” value is given as “significant shift in VFA ratios favoring the longer chain acids”. Moreover, the “Valeric acid, μmols” value (Treated 16 μg./ml., control 1.8) is reported as 4.5 μmols. The “Valeric acid, μmols %” value (Treated 16 μg./ml., control 3.0) is 7.0 μmols %. Moreover, the “Butyric acid, μmols” value (Treated 16 μg./ml., control 7.1) was found to be 15.3 μmols. Further, where the note is “Treated 16 μg./ml., control 10.5”, the “Butyric acid, μmols %” value worked out at 25.0 μmols %. For the same compound, the “Propionic acid, μmols” value (Treated 16 μg./ml., control 19.5) was 23.0 μmols. The “Propionic acid, μmols %” value (Treated 16 μg./ml., control 28.5) was determined as 37.0 μmols %. The “Acetic acid, μmols” value (Treated 16 μg./ml., control 39.9) was determined as 18.8 μmols. Moreover, the “Acetic acid, μmols %” value (Treated 16 μg./ml., control 58.5) was found to be 31.0 μmols %. Besides, the “Total volatile fatty acids, μmols” value (Treated 16 μg./ml., control 68.3) turned out to be 61.6 μmols. Moreover, the “production of VFAs (summary of tabulated data)” value (in vitro rumen fermentation) was “effective in increasing the production of the VFAs, propionic, butyric and valeric at the expense of methane and acetate”.
